According to patent US8772253B2, “Aureolic acid derivatives, the method for preparation thereof and the uses” (Entrechem, S.L., priority 2009, dated 2014):
Like-named read-outs stand apart in the source and are kept apart here.

Tests used:
Type in all cases: cell-based
[1] = test system: A549 (human lung carcinoma); test: MTT cell proliferation (cytotoxicity) assay, A549; settings: read-out: IC50 or concentration required to achieve 50% growth inhibition compared to untreated cells, A549 (lung)
Description: (§1) MTM and CRM derivatives were assayed against a collection of tumor cell lines. Tumor cell lines were obtained from The American Type and Culture Collection (ATCC), and the lines were the following; A549 (human lung carcinoma); H116 (colon adenocarcinoma); PSN1 (pancreatic adenocarcinoma) and T98G (human glyoblastoma). Cells were cultured in medium RPM1 containing 2 mM glutamine, 50 IU/ml penicillin and 50 μg/ml streptomycin. Culture medium for cell lines A549 and H116 was supplemeted with 5% FBS and culture medium for cell lines PSN1 and T98G was supplemented with 10% FBS.
(§2) The evaluation of compound cytotoxicity was carried out by determining cell viability using an assay based on metabolic reduction of 3-(4,5-dimethyl-2-thiazolyl)-2,5-diphenyltetrazolium bromide (MTT; Sigma Chemical Co. St. Louis, Mo.). This reduction reaction is carried out by mitochondrion succinate dehydrogenase of viable cells and produce formazan, a chromogenic compound that can be quantified by spectrophotometry.
(§3) The assay was carried out following the procedure described by Mosmann (J. Immunol. Methods 1983, 65, 55). Tumor cells were incubated in 96 well microtitre plates containing 200 μl of complete medium (with 4×10^3 cells/well for A549 and 6×10^3 cells/well for H116, PSN1 and T98G). Serial dilutions in DMSO of the test compounds (10 μg/ml, 5 μg/ml, 1 μg/ml, 0.5 μg/ml, 0.1 μg/ml, 0.05 μg/ml, 0.01 μg/ml, y 0.005 μg/ml) were added and after 2 days incubation (at 37° C., 5% CO2 and high relative humidity), 50 μl of MTT (1 mg/ml in PBS) was added to each well. The plates were incubated at 37° C. for 2 hours and the reduction product (formazan) was resuspended in 100 μl of DMSO and quantified at 490 nm with a spectrophotometer.

[2] = test system: H116 (colon adenocarcinoma); test: MTT cell proliferation (cytotoxicity) assay, H116; settings: read-out: IC50 or concentration required to achieve 50% growth inhibition compared to untreated cells, H116 (colon)
Description: as §1, §2, §3

[3] = test system: T98G (human glyoblastoma); test: MTT cell proliferation (cytotoxicity) assay, T98G; settings: read-out: IC50 or concentration required to achieve 50% growth inhibition compared to untreated cells, T98G (glyoblastoma)
Description: as §1, §2, §3

[4] = test system: PSN1 (pancreatic adenocarcinoma); test: MTT cell proliferation (cytotoxicity) assay, PSN1; settings: read-out: IC50 or concentration required to achieve 50% growth inhibition compared to untreated cells, PSN1 (pancreatic adenocarcinoma)
Description: as §1, §2, §3

[5] = Homo sapiens, 48 h, A549 cells, MTT, 2 days incubation, triplicate
[6] = 48 h, H116 cells, MTT, 2 days incubation, triplicate
[7] = Homo sapiens, 48 h, T98G cells, MTT, 2 days incubation, triplicate
[8] = Homo sapiens, 48 h, PSN1 cells, MTT, 2 days incubation, triplicate, read-out: IC50 or concentration required to achieve 50% growth inhibition compared to untreated cells, PSN1 (prostate)
[9] = A549 cells, MTT, 2 days incubation, triplicate
[10] = H116 cells, MTT, 2 days incubation, triplicate
[11] = T98G cells, MTT, 2 days incubation, triplicate
[12] = PSN1 cells, MTT, 2 days incubation, triplicate, read-out: IC50 or concentration required to achieve 50% growth inhibition compared to untreated cells, PSN1 (prostate)

Compound | IC50 [1, 5] | IC50 [2, 6] | IC50 [3, 7] | IC50 [4, 8] | also measured
CO[C@H](C(=O)[C@@H](O)[C@@H](C)OC(=O)CCC(=O)O)[C@@H]1Cc2cc3cc(O[C@H]4C[C@@H](O[C@H]5C[C@@H](O)[C@H](O)C(C)O5)[C@H](O)C(C)O4)c(C)c(O)c3c(O)c2C(=O)[C@H]1O[C@H]1C[C@@H](O[C@H]2C[C@@H](O[C@H]3C[C@](C)(O)[C@H](O)C(C)O3)[C@@H](O)C(C)O2)[C@H](O)C(C)O1 (some centres unmarked) [(LII)] | 420 nM | 420 nM | 844 nM | 420 nM | –
CO[C@@H]([C@@H]1Cc2cc3cc(O[C@H]4C[C@@H](O[C@H]5C[C@@H](O)[C@H](OC(C)=O)C(C)O5)[C@H](O)C(C)O4)c(C)c(O)c3c(O)c2C(=O)[C@H]1O[C@H]1C[C@@H](O[C@H]2C[C@@H](O[C@H]3C[C@](C)(O)[C@H](O)C(C)O3)[C@@H](O)C(C)O2)[C@H](O)C(C)O1)[C@@H](O)C(C)=O (some centres unmarked) [(LXIX)] | 9 nM | 9 nM | 4 nM | 45 nM | –
CCCC(=O)O[C@H](C)[C@H](O)C(=O)[C@@H](OC)[C@@H]1Cc2cc3cc(O[C@H]4C[C@@H](O[C@H]5C[C@@H](O)[C@H](O)C(C)O5)[C@H](O)C(C)O4)c(C)c(O)c3c(O)c2C(=O)[C@H]1O[C@H]1C[C@@H](O[C@H]2C[C@@H](O[C@H]3C[C@](C)(O)[C@H](O)C(C)O3)[C@@H](O)C(C)O2)[C@H](O)C(C)O1 (some centres unmarked) [(XXXI)] | 43 nM | 43 nM | 43 nM | 43 nM | –
CO[C@@H]([C@@H]1Cc2cc3cc(O[C@H]4C[C@@H](O[C@H]5C[C@@H](O)[C@H](O)[C@@H](C)O5)[C@H](O)[C@@H](C)O4)c(C)c(O)c3c(O)c2C(=O)[C@H]1O[C@H]1C[C@@H](O[C@H]2C[C@@H](O[C@H]3C[C@](C)(O)[C@H](O)[C@@H](C)O3)[C@@H](O)[C@@H](C)O2)[C@H](O)[C@@H](C)O1)[C@@H](O)C(C)=O [MTM-SK, reference compound] | – | – | – | – | IC50 [1, 9]: 9.4 nM; IC50 [2, 10]: 9.4 nM; IC50 [3, 11]: 47.3 nM; IC50 [4, 12]: 9.4 nM
CO[C@H](C(=O)C(C)=O)[C@@H]1Cc2cc3cc(O[C@H]4C[C@@H](O[C@H]5C[C@@H](O)[C@H](O)C(C)O5)[C@H](O)C(C)O4)c(C)c(O)c3c(O)c2C(=O)[C@H]1O[C@H]1C[C@@H](O[C@H]2C[C@@H](O)[C@@H](O)C(C)O2)[C@H](O)C(C)O1 (some centres unmarked) [(VIII)] | 50 nM | 50 nM | 300 nM | 100 nM | –
CO[C@H](C(=O)[C@@H](O)[C@@H](C)O)[C@@H]1Cc2cc3cc(O[C@H]4C[C@@H](O[C@H]5C[C@@H](O)[C@H](O)C(C)O5)[C@H](O)C(C)O4)c(C)c(O)c3c(O)c2C(=O)[C@H]1O[C@H]1C[C@@H](O[C@H]2C[C@@H](O[C@H]3C[C@](C)(O)[C@H](OC(C)=O)C(C)O3)[C@@H](O)C(C)O2)[C@H](O)C(C)O1 (some centres unmarked) [(XII)] | 50 nM | 10 nM | 300 nM | 50 nM | –
CO[C@H](C(=O)C(C)=O)[C@@H]1Cc2cc3cc(O[C@H]4C[C@@H](O[C@H]5C[C@@H](O)[C@H](O)[C@@H](C)O5)[C@H](O)[C@@H](C)O4)c(C)c(O)c3c(O)c2C(=O)[C@H]1O[C@H]1C[C@@H](O[C@H]2C[C@@H](O[C@H]3C[C@](C)(O)[C@H](O)[C@@H](C)O3)[C@@H](O)[C@@H](C)O2)[C@H](O)[C@@H](C)O1 [MTM-SDK, reference compound] | – | – | – | – | IC50 [1, 9]: 9.4 nM; IC50 [2, 10]: 9.4 nM; IC50 [3, 11]: 47.4 nM; IC50 [4, 12]: 9.4 nM
CO[C@H](C(=O)C(C)=O)[C@@H]1Cc2cc3cc(O[C@H]4C[C@@H](O[C@H]5C[C@@H](O)[C@H](O)C(C)O5)[C@H](O)C(C)O4)c(C)c(O)c3c(O)c2C(=O)[C@H]1O[C@H]1C[C@@H](O[C@H]2C[C@@H](O[C@H]3C[C@@H](O)[C@H](O)C(C)O3)[C@@H](O)C(C)O2)[C@H](O)C(C)O1 (some centres unmarked) [(IX)] | – | – | – | – | IC50 ([1]; Homo sapiens, A549, 48 h): 5 nM; IC50 ([2]; H116, 48 h): 5 nM; IC50 ([3]; Homo sapiens, T98G, 48 h): 10 nM; IC50 ([4]; Homo sapiens, PSN1, 48 h): 5 nM
CO[C@@H]([C@@H]1Cc2cc3cc(O[C@H]4C[C@@H](O[C@H]5C[C@@H](OC(C)=O)[C@H](O)C(C)O5)[C@H](O)C(C)O4)c(C)c(O)c3c(O)c2C(=O)[C@H]1O[C@H]1C[C@@H](O[C@H]2C[C@@H](O[C@H]3C[C@](C)(O)[C@H](O)C(C)O3)[C@@H](O)C(C)O2)[C@H](O)C(C)O1)[C@@H](O)C(C)=O (some centres unmarked) [(LXI)] | 45 nM | 9 nM | 45 nM | 6.5 nM | –
3D-demycarosyl-3D-β-D-digitoxosyl-MTM [reference compound] | – | – | – | – | IC50 [1, 9]: 46.6 nM; IC50 [2, 10]: 46.6 nM; IC50 [3, 11]: 69 nM; IC50 [4, 12]: 46.6 nM
CO[C@@H]([C@@H]1Cc2cc3cc(O[C@H]4C[C@@H](O[C@H]5C[C@@H](O)[C@H](O)C(C)O5)[C@H](O)C(C)O4)c(C)c(O)c3c(O)c2C(=O)[C@H]1O[C@H]1C[C@@H](O[C@H]2C[C@@H](O[C@H]3C[C@@H](O)[C@H](O)C(C)O3)[C@@H](O)C(C)O2)[C@H](O)C(C)O1)[C@@H](O)C(C)=O (some centres unmarked) [(VII)] | 50 nM | 10 nM | 300 nM | 100 nM | –
CCCC(=O)O[C@@H]1C[C@H](O[C@@H]2C[C@H](Oc3cc4cc5c(c(O)c4c(O)c3C)C(=O)[C@@H](O[C@H]3C[C@@H](O[C@H]4C[C@@H](O[C@H]6C[C@](C)(O)[C@H](O)C(C)O6)[C@@H](O)C(C)O4)[C@H](O)C(C)O3)[C@H]([C@H](OC)C(=O)[C@@H](O)[C@@H](C)O)C5)OC(C)[C@H]2O)OC(C)[C@H]1O (some centres unmarked) [(XLVI)] | 433 nM | 43 nM | 43 nM | 43 nM | –
CO[C@H](C(=O)[C@@H](O)[C@@H](C)O)[C@@H]1Cc2cc3cc(O[C@H]4C[C@@H](O[C@H]5C[C@@H](O)[C@H](OC(=O)CCC(=O)O)C(C)O5)[C@H](O)C(C)O4)c(C)c(O)c3c(O)c2C(=O)[C@H]1O[C@H]1C[C@@H](O[C@H]2C[C@@H](O[C@H]3C[C@](C)(O)[C@H](O)C(C)O3)[C@@H](O)C(C)O2)[C@H](O)C(C)O1 (some centres unmarked) [(LIII)] | 4210 nM | 844 nM | 844 nM | 633 nM | –
CO[C@H](C(=O)[C@@H](O)[C@@H](C)O)[C@@H]1Cc2cc3cc(O[C@H]4C[C@@H](O[C@H]5C[C@@H](OC(=O)CCC(=O)O)[C@H](O)C(C)O5)[C@H](O)C(C)O4)c(C)c(O)c3c(O)c2C(=O)[C@H]1O[C@H]1C[C@@H](O[C@H]2C[C@@H](O[C@H]3C[C@](C)(O)[C@H](O)C(C)O3)[C@@H](O)C(C)O2)[C@H](O)C(C)O1 (some centres unmarked) [(LV)] | 4210 nM | 4210 nM | 4210 nM | 422 nM | –
C/C=C/C(=O)O[C@@H]1C[C@H](O[C@@H]2C[C@H](Oc3cc4cc5c(c(O)c4c(O)c3C)C(=O)[C@@H](O[C@H]3C[C@@H](O[C@H]4C[C@@H](O[C@H]6C[C@](C)(O)[C@H](O)C(C)O6)[C@@H](O)C(C)O4)[C@H](O)C(C)O3)[C@H]([C@H](OC)C(=O)[C@@H](O)[C@@H](C)O)C5)OC(C)[C@H]2O)OC(C)[C@H]1O (some centres unmarked) [(LI)] | 43 nM | 43 nM | 87 nM | 43 nM | –
CO[C@@H]([C@@H]1Cc2cc3cc(O[C@H]4C[C@@H](O[C@H]5C[C@@H](O)[C@H](O)C(C)O5)[C@H](O)C(C)O4)c(C)c(O)c3c(O)c2C(=O)[C@H]1O[C@H]1C[C@@H](O[C@H]2C[C@@H](O[C@H]3C[C@](C)(O)[C@H](O)C(C)O3)[C@@H](O)C(C)O2)[C@H](O)C(C)O1)[C@@H](O)C(C)=O (some centres unmarked) [(XIV)] | 50 nM | 10 nM | 750 nM | 50 nM | –
3D-demycarosyl-MTM-SK [reference compound] | – | – | – | – | IC50 [1, 9]: 1000 nM; IC50 [2, 10]: 500 nM; IC50 [3, 11]: > 1000 nM; IC50 [4, 12]: 1000 nM
